# Reference: article PMC4435632, “Phase 1 study of ixazomib, an investigational proteasome inhibitor, in advanced non-hematologic malignancies” (Investigational New Drugs, 2015)
# Test system: patients with advanced non-hematologic malignancies
# Assay: Safety: adverse events graded by NCI-CTCAE v3.0, phase 1 study of IV ixazomib
# Assay type: in vivo
# From the text: Patients received ixazomib as an IV bolus on days 1, 4, 8, and 11 of a 21-day cycle, for up to 12 cycles, or until disease progression or unacceptable toxicity. Patients who were thought to potentially benefit from prolonged therapy could receive continued treatment beyond 12 cycles according to the treating physician’s consideration. Patients could receive prophylactic antiviral therapy; prophylactic antidiarrheals and antiemetics were not employed initially but could be considered upon development of diarrhea or nausea/vomiting.
# AEs were monitored throughout the study and were graded according to National Cancer Institute Common Terminology Criteria for Adverse Events (NCI-CTCAE) v3.0. Response assessments were undertaken by investigators using a consistent imaging modality in accordance with RECIST 1.0 [23] on days 18–21 of cycle 2 and subsequent cycles. For patients with prostate cancer, response and progressive disease were based on RECIST for measurable neoplastic disease or on measurement of serum PSA per modified PCWG2 criteria in the absence of measurable sites.
# The safety population included all patients who received ≥1 dose of ixazomib, and the DLT-evaluable population, which was used for determination of the MTD, comprised patients who received all cycle 1 doses of ixazomib or experienced a DLT in cycle 1. […] The response-evaluable population included all patients who received ≥1 dose of ixazomib, had measurable disease at baseline, and had ≥1 post-baseline disease assessment. Approximately 16 response-evaluable patients were planned to be evaluated in each MTD expansion cohort.
# All efficacy and safety data were summarized using descriptive statistics. Pharmacokinetic and pharmacodynamic parameters were calculated using noncompartmental methods (WinNonlin software v5.3).
smiles,measurement,setting,value
CC(C)C[C@H](NC(=O)CNC(=O)c1cc(Cl)ccc1Cl)B(O)O [ixazomib],Any on-study deaths,Dose-escalation cohort (n=23),3 (13) n (%)
same,Any on-study deaths,MTD expansion cohort H&N (n=22),2 (9) n (%)
same,Any on-study deaths,MTD expansion cohort NSCLC (n=20),0 n (%)
same,Any on-study deaths,MTD expansion cohort PC (n=11),0 n (%)
same,Any on-study deaths,MTD expansion cohort STS (n=20),1 (5) n (%)
same,Any on-study deaths,MTD expansion cohort TPEC (n=20),1 (5) n (%)
same,Any on-study deaths,Total (N=116),7 (6) n (%)
same,Drug-related AE: alopecia,"human, in vivo",< 1%
same,Drug-related AE: circumoral edema,"human, in vivo",< 1%
same,Drug-related AE: dermatitis acneiform,"human, in vivo",2%
same,Drug-related AE: dry skin,"human, in vivo",2%
same,Drug-related AE: erythema nodosum,"human, in vivo",< 1%
same,Drug-related AE: exfoliative rash,"human, in vivo",< 1%
same,Drug-related AE: night sweats,"human, in vivo",< 1%
same,Drug-related AE: petechiae,"human, in vivo",< 1%
same,Drug-related AE: pruritus,"human, in vivo",4%
same,Drug-related AE: rash,"human, in vivo",6%
same,Drug-related AE: rash erythematous,"human, in vivo",9%
same,Drug-related AE: rash macular,"human, in vivo",13%
same,Drug-related AE: rash maculo-papular,"human, in vivo",17%
same,Drug-related AE: rash papular,"human, in vivo",10%
same,Drug-related AE: rash pruritic,"human, in vivo",13%
same,Drug-related AE: skin exfoliation,"human, in vivo",< 1%
same,Drug-related AE: skin hyperpigmentation,"human, in vivo",< 1%
same,Drug-related AE: swelling face,"human, in vivo",< 1%
same,Drug-related AE: urticaria,"human, in vivo",< 1%
same,Drug-related PN NEC,"human, in vivo",15%
same,"Drug-related PN NEC, grade 1","human, in vivo",6 n
same,"Drug-related PN NEC, grade 2","human, in vivo",8 n
same,Drug-related grade ≥3 AE: erythema nodosum,"human, in vivo",< 1%
same,Drug-related grade ≥3 AE: rash,"human, in vivo",< 1%
same,Drug-related grade ≥3 AE: rash erythematous,"human, in vivo",2%
same,Drug-related grade ≥3 AE: rash macular,"human, in vivo",3%
same,Drug-related grade ≥3 AE: rash maculo-papular,"human, in vivo",7%
same,Drug-related grade ≥3 AE: rash papular,"human, in vivo",< 1%
same,Drug-related grade ≥3 AE: rash pruritic,"human, in vivo",3%
same,Drug-related grade ≥3 fatigue,"human, in vivo",9%
same,Drug-related grade ≥3 thrombocytopenia,"human, in vivo",23%
same,Drug-related serious AE: dehydration,"human, in vivo",3%
same,Drug-related serious AE: fatigue,"human, in vivo",3%
same,Drug-related serious AE: nausea,"human, in vivo",3%
same,Drug-related serious AE: thrombocytopenia,"human, in vivo",6%
same,Drug-related serious AE: vomiting,"human, in vivo",3%
same,Drug-related serious AEs,"human, in vivo",28%
same,Drug-related thrombocytopenia,"human, in vivo",45%
same,"Duration of rash, median","human, in vivo",15 days
same,"Duration of rash, range","human, in vivo",4 to 90 days
same,Grade 3 PN NEC,"human, in vivo",3%
same,Patients who discontinued ixazomib due to treatment-emergent AEs,"human, in vivo",15%
same,Patients who required platelet transfusions,"human, in vivo",4%
same,Patients with ≥1 drug-related AE,"human, in vivo",90%
same,Patients with ≥1 drug-related grade ≥3 AE,"human, in vivo",57%
same,Patients with ≥1 treatment-emergent AE,"human, in vivo",99%
same,Patients with ≥1 treatment-emergent grade ≥3 AE,"human, in vivo",72%
same,Drug-related grade ≥3 skin and subcutaneous (SC) tissue disorders,"human, in vivo, sc",16%
same,Treatment-related skin and subcutaneous (SC) tissue disorders,"human, in vivo, sc",53%
same,On-study deaths,none considered treatment-related,seven
